Data from ChEMBL document CHEMBL3885861, “Open TG-GATES”.

Species on record: Rattus norvegicus
Assay: Open TG-GATES - Regimen: Single
Type: toxicity, organism-based, Sprague-Dawley
Set-up: regimen Single, gender Male, age 6 weeks
Conditions: in vivo, po, route gavage; for APTT / Bas / Eos / Fbg / Hb / Ht / Lym / MCH / MCHC / MCV / Mono / Neu / PT / Plat / RBC / Ret / WBC: tissue Blood; for KIDNEY_L / KIDNEY_R / KIDNEY_TOTAL: tissue Kidney; for LIVER: tissue Liver; for A/G / ALP / ALT / AST / BUN / CRE / Ca / Cl / DBIL / GLC / IP / K / LDH / Na / PL / RALB / TBIL / TC / TG / TP / gamma-GTP: tissue Plasma
[1] = 0 mg/kg, 3 h, dose level Control
[2] = 0 mg/kg, 6 h, dose level Control
[3] = 0 mg/kg, 9 h, dose level Control
[4] = 0 mg/kg, 24 h, dose level Control
[5] = 100 mg/kg, 24 h, dose level Low

## CC(=O)Nc1ccc2c(c1)Cc1ccccc1-2 [2-ACETYLAMINOFLUORENE]
[1]
  TERMINAL_BW: 224.8 g
  APTT: 20.9 s
  Bas: 0%
  Eos: 1%
  Fbg: 222.8 mg/dL
  Hb: 13.6 g/dL
  Ht: 39.5%
  Lym: 76.8%
  MCH: 21.5 pg
  MCHC: 34.5%
  MCV: 62.4 fL
  Mono: 2.4%
  Neu: 18.4%
  PT: 11.9 s
  Plat: 128.1 x10_4/uL
  RBC: 632.6 x10_4/ul
  Ret: 7.4%
  WBC: 87.7 x10_2/uL
  KIDNEY_L: 1 g
  KIDNEY_R: 1 g
  KIDNEY_TOTAL: 2 g
  LIVER: 10.3 g
  A/G: 1.7
  ALP: 1018.4 IU/L
  ALT: 36.6 IU/L
  AST: 77.4 IU/L
  BUN: 10.8 mg/dL
  CRE: 0.4 mg/dL
  Ca: 10.5 mg/dL
  Cl: 103.2 meq/L
  DBIL: 0.072 mg/dL
  GLC: 194.8 mg/dL
  IP: 9.7 mg/dL
  K: 4 meq/L
  LDH: 161.8 IU/L
  Na: 141 meq/L
  PL: 141.6 mg/dL
  RALB: 3.4 g/dL
  TBIL: 0.1 mg/dL
  TC: 77.8 mg/dL
  TG: 61.6 mg/dL
  TP: 5.5 g/dL
  gamma-GTP: 0.8 IU/L
[2]
  TERMINAL_BW: 219.6 g
  APTT: 20.9 s
  Bas: 0.6%
  Eos: 0.6%
  Fbg: 225.4 mg/dL
  Hb: 14.2 g/dL
  Ht: 40.9%
  Lym: 78.2%
  MCH: 21.8 pg
  MCHC: 34.6%
  MCV: 63.1 fL
  Mono: 2.8%
  Neu: 16.8%
  PT: 12.2 s
  Plat: 131.8 x10_4/uL
  RBC: 649.8 x10_4/ul
  Ret: 6.9%
  WBC: 108.9 x10_2/uL
  KIDNEY_L: 1 g
  KIDNEY_R: 1 g
  KIDNEY_TOTAL: 2 g
  LIVER: 9.3 g
  A/G: 1.7
  ALP: 956.2 IU/L
  ALT: 32.4 IU/L
  AST: 70.4 IU/L
  BUN: 9.6 mg/dL
  CRE: 0.4 mg/dL
  Ca: 10.5 mg/dL
  Cl: 101.4 meq/L
  DBIL: 0.076 mg/dL
  GLC: 196 mg/dL
  IP: 9.7 mg/dL
  K: 4.2 meq/L
  LDH: 166.6 IU/L
  Na: 140.4 meq/L
  PL: 139 mg/dL
  RALB: 3.4 g/dL
  TBIL: 0.1 mg/dL
  TC: 72.2 mg/dL
  TG: 89.8 mg/dL
  TP: 5.4 g/dL
  gamma-GTP: 1.2 IU/L
[3]
  TERMINAL_BW: 217 g
  APTT: 17.7 s
  Bas: 0.8%
  Eos: 0.8%
  Fbg: 241.4 mg/dL
  Hb: 13.9 g/dL
  Ht: 40.5%
  Lym: 75.2%
  MCH: 21.8 pg
  MCHC: 34.3%
  MCV: 63.4 fL
  Mono: 2.8%
  Neu: 19.4%
  PT: 12 s
  Plat: 124 x10_4/uL
  RBC: 639.4 x10_4/ul
  Ret: 6.7%
  WBC: 86.2 x10_2/uL
  KIDNEY_L: 1 g
  KIDNEY_R: 1 g
  KIDNEY_TOTAL: 1.9 g
  LIVER: 9.2 g
  A/G: 1.5
  ALP: 861.2 IU/L
  ALT: 32.4 IU/L
  AST: 67.8 IU/L
  BUN: 11.2 mg/dL
  CRE: 0.4 mg/dL
  Ca: 10.6 mg/dL
  Cl: 104 meq/L
  DBIL: 0.06 mg/dL
  GLC: 210.4 mg/dL
  IP: 9 mg/dL
  K: 3.7 meq/L
  LDH: 239.6 IU/L
  Na: 141 meq/L
  PL: 134.8 mg/dL
  RALB: 3.5 g/dL
  TBIL: 0.1 mg/dL
  TC: 73.6 mg/dL
  TG: 49.2 mg/dL
  TP: 5.7 g/dL
  gamma-GTP: 1 IU/L
[4]
  TERMINAL_BW: 237.9 g
  APTT: 20.8 s
  Bas: 0.2%
  Eos: 0.8%
  Fbg: 217.2 mg/dL
  Hb: 13.8 g/dL
  Ht: 40.1%
  Lym: 82%
  MCH: 22.5 pg
  MCHC: 34.3%
  MCV: 65.4 fL
  Mono: 3%
  Neu: 13.2%
  PT: 11.9 s
  Plat: 121.3 x10_4/uL
  RBC: 612 x10_4/ul
  Ret: 6.8%
  WBC: 101.1 x10_2/uL
  KIDNEY_L: 1.1 g
  KIDNEY_R: 1.1 g
  KIDNEY_TOTAL: 2.1 g
  LIVER: 11.4 g
  A/G: 1.7
  ALP: 1055.8 IU/L
  ALT: 40 IU/L
  AST: 69.4 IU/L
  BUN: 14.8 mg/dL
  CRE: 0.4 mg/dL
  Ca: 10.8 mg/dL
  Cl: 103.8 meq/L
  DBIL: 0.09 mg/dL
  GLC: 214.6 mg/dL
  IP: 8.3 mg/dL
  K: 3.9 meq/L
  LDH: 192.8 IU/L
  Na: 140.4 meq/L
  PL: 132.2 mg/dL
  RALB: 3.4 g/dL
  TBIL: 0.2 mg/dL
  TC: 64.2 mg/dL
  TG: 95.8 mg/dL
  TP: 5.4 g/dL
  gamma-GTP: 1.2 IU/L
100 mg/kg, 3 h, dose level Low
  TERMINAL_BW: 222.2 g
  APTT: 19.4 s
  Bas: 0.8%
  Eos: 1%
  Fbg: 228.6 mg/dL
  Hb: 14.1 g/dL
  Ht: 40.7%
  Lym: 76.4%
  MCH: 21.6 pg
  MCHC: 34.7%
  MCV: 62.3 fL
  Mono: 2%
  Neu: 19.2%
  PT: 11.6 s
  Plat: 114.3 x10_4/uL
  RBC: 653.2 x10_4/ul
  Ret: 7%
  WBC: 73.8 x10_2/uL
  KIDNEY_L: 1 g
  KIDNEY_R: 1 g
  KIDNEY_TOTAL: 2 g
  LIVER: 10.4 g
  A/G: 1.8
  ALP: 1019.4 IU/L
  ALT: 37.6 IU/L
  AST: 77 IU/L
  BUN: 13.2 mg/dL
  CRE: 0.4 mg/dL
  Ca: 10.7 mg/dL
  Cl: 103.4 meq/L
  DBIL: 0.07 mg/dL
  GLC: 212.8 mg/dL
  IP: 10.8 mg/dL
  K: 4 meq/L
  LDH: 203.8 IU/L
  Na: 141.4 meq/L
  PL: 151 mg/dL
  RALB: 3.6 g/dL
  TBIL: 0.1 mg/dL
  TC: 92.6 mg/dL
  TG: 45.8 mg/dL
  TP: 5.6 g/dL
  gamma-GTP: 1 IU/L
100 mg/kg, 6 h, dose level Low
  TERMINAL_BW: 219.9 g
  APTT: 20.9 s
  Bas: 0.4%
  Eos: 1%
  Fbg: 221.6 mg/dL
  Hb: 13.9 g/dL
  Ht: 40.1%
  Lym: 81.6%
  MCH: 21.3 pg
  MCHC: 34.6%
  MCV: 61.5 fL
  Mono: 2.4%
  Neu: 14.2%
  PT: 12.2 s
  Plat: 132.9 x10_4/uL
  RBC: 652 x10_4/ul
  Ret: 7%
  WBC: 82.3 x10_2/uL
  KIDNEY_L: 1 g
  KIDNEY_R: 1 g
  KIDNEY_TOTAL: 2 g
  LIVER: 9.9 g
  A/G: 1.6
  ALP: 792.8 IU/L
  ALT: 31.6 IU/L
  AST: 70.6 IU/L
  BUN: 10 mg/dL
  CRE: 0.4 mg/dL
  Ca: 10.5 mg/dL
  Cl: 101.8 meq/L
  DBIL: 0.064 mg/dL
  GLC: 195.6 mg/dL
  IP: 9.4 mg/dL
  K: 4.1 meq/L
  LDH: 169 IU/L
  Na: 140.4 meq/L
  PL: 135.6 mg/dL
  RALB: 3.4 g/dL
  TBIL: 0.1 mg/dL
  TC: 79.2 mg/dL
  TG: 45.2 mg/dL
  TP: 5.6 g/dL
  gamma-GTP: 1 IU/L
100 mg/kg, 9 h, dose level Low
  TERMINAL_BW: 218.6 g
  APTT: 19 s
  Bas: 0.6%
  Eos: 0.8%
  Fbg: 227.6 mg/dL
  Hb: 14.1 g/dL
  Ht: 40.8%
  Lym: 72.8%
  MCH: 21.4 pg
  MCHC: 34.5%
  MCV: 62.2 fL
  Mono: 3%
  Neu: 22%
  PT: 12.9 s
  Plat: 124.3 x10_4/uL
  RBC: 655 x10_4/ul
  Ret: 6.7%
  WBC: 79.5 x10_2/uL
  KIDNEY_L: 0.9 g
  KIDNEY_R: 0.9 g
  KIDNEY_TOTAL: 1.9 g
  LIVER: 9.5 g
  A/G: 1.5
  ALP: 754.8 IU/L
  ALT: 31 IU/L
  AST: 67.2 IU/L
  BUN: 10.8 mg/dL
  CRE: 0.4 mg/dL
  Ca: 10.5 mg/dL
  Cl: 104.2 meq/L
  DBIL: 0.064 mg/dL
  GLC: 211.2 mg/dL
  IP: 9.1 mg/dL
  K: 3.8 meq/L
  LDH: 230 IU/L
  Na: 141.2 meq/L
  PL: 124.8 mg/dL
  RALB: 3.4 g/dL
  TBIL: 0.1 mg/dL
  TC: 65 mg/dL
  TG: 56.8 mg/dL
  TP: 5.7 g/dL
  gamma-GTP: 1 IU/L
[5]
  TERMINAL_BW: 221.4 g
  APTT: 21.7 s
  Bas: 0.2%
  Eos: 1%
  Fbg: 215.6 mg/dL
  Hb: 14.6 g/dL
  Ht: 42%
  Lym: 76.8%
  MCH: 22.2 pg
  MCHC: 34.7%
  MCV: 63.8 fL
  Mono: 5%
  Neu: 16.6%
  PT: 14.5 s
  Plat: 140.8 x10_4/uL
  RBC: 658.2 x10_4/ul
  Ret: 6.5%
  WBC: 91.5 x10_2/uL
  KIDNEY_L: 1 g
  KIDNEY_R: 1 g
  KIDNEY_TOTAL: 2.1 g
  LIVER: 11.2 g
  A/G: 1.8
  ALP: 1020 IU/L
  ALT: 37.8 IU/L
  AST: 74 IU/L
  BUN: 17.2 mg/dL
  CRE: 0.4 mg/dL
  Ca: 10.4 mg/dL
  Cl: 105.4 meq/L
  DBIL: 0.1 mg/dL
  GLC: 187.8 mg/dL
  IP: 8.4 mg/dL
  K: 4.6 meq/L
  LDH: 207.4 IU/L
  Na: 140.6 meq/L
  PL: 120.8 mg/dL
  RALB: 3.3 g/dL
  TBIL: 0.2 mg/dL
  TC: 52 mg/dL
  TG: 120.6 mg/dL
  TP: 5.1 g/dL
  gamma-GTP: 1.4 IU/L
